Measured values as given in EP0629585A1, “Process of inhibition oxalate scale formation” (MONSANTO EUROPE S.A., priority 1993, dated 1994).
Counter-ions that a name gives are not always drawn.

Assay: Calcium oxalate scale inhibition test under conditions similar to an alkaline pulp bleaching process
Settings: dosage 25 ppm active acid, 45°C, pH 9.5, 100 ppm calcium, 80 ppm oxalates
Protocol: The preferred oxalate scale inhibiting compound of the invention, i.e. the compound of formula I above, was tested alongside various members of the known "DEQUEST" family of phosphonate inhibitors under conditions similar to those encountered in an alkaline pulp bleaching process. The word "DEQUEST" is a Registered Trade Mark.
The temperature of the aqueous solution used in the tests was maintained at 45°C and the pH at 9.5 (adjusted using an ammonium hydroxide/ammonium chloride buffering agent). Tests times of 2.5, 8 and 24 hours were deployed, and concentrations of 100 ppm of calcium and 80 ppm of oxalates were present in the aqueous solution. A dosage rate of inhibitor of 25 ppm was used in each test. The "DEQUEST" scale inhibitors used in the tests were designated A to E and were as follows: • A - DEQUEST 2066 (diethylenetriaminepenta(methylenephosphonic acid) or its salts) • B - DEQUEST 2046 (ethylenediaminetetra(methylenephosphonic acid) or its salts) • C - DEQUEST 2000 (aminotri(methylenephosphonic acid) or its salts) • D - DEQUEST 2010 (1-hydroxyethylene(1,1 diphosphonic acid)) • E - DEQUEST 2056 (hexamethylenediaminetetra(methylenephosphonic acid) or its salts). TABLE
The results above express the scale-inhibiting effects of the various inhibitors in terms of percentage inhibition.

Molecule | Percentage Inhibition (time 2.5 hrs) | Percentage Inhibition (time 8 hrs) | Percentage Inhibition (time 24 hrs)
O=P(O)(O)CN(CCCN(CP(=O)(O)O)CP(=O)(O)O)CCN(CCCN(CP(=O)(O)O)CP(=O)(O)O)CP(=O)(O)O [(I)] | 100 | 92 | 49
O=P(O)(O)CN(CP(=O)(O)O)CP(=O)(O)O [C, aminotri(methylenephosphonic acid) or its salts] | 51 |  | 
CC(O)(P(=O)(O)O)P(=O)(O)O [D, 1-hydroxyethylene(1,1 diphosphonic acid)] | 49 |  | 
diethylenetriaminepenta(methylenephosphonic acid) or its salts | 64 | 38 | 24
ethylenediaminetetra(methylenephosphonic acid) or its salts [B] | 50 | 23 | 14
hexamethylenediaminetetra(methylenephosphonic acid) or its salts | 34 |  | 
